Test results taken from patent US10464885B2, “Compound, preparation method therefor, applications thereof, corresponding targeted drug delivery system, chemotherapy drugs, and treatment method” (BEIJING XINDE RUNXING TECHNOLOGY CO., LTD., priority 2015, dated 2019).

Experiments:
[1] = test system: patients with relapsed SCLC; conditions: cited from earlier work
human body = conditions: oral treatment of taeniasis, adults and children; cited from earlier work
[2] = test system: small cell lung cancer cell line H446; assay: Cell viability CCK-8 assay, H446; type: cell-based; conditions: 48 h after dosing
Text: Test cell line: small cell lung cancer cell line H446 (purchased from Shanghai Beinuo Life Science Co., Ltd.)
Cell viability CCK-8 assay: CCK8 assay, with a reagent containing 2-(2-methoxy-4-nitrophenyl)-3-(4-nitrophenyl)-5-(2,4-disulfophenyl)-2H-tetrazole monosodium salt (WST-8), is reduced by dehydrogenase in the cells in the presence of electron carrier 1-methoxy-5-methylphenazinium […] (1-Methoxy PMS), to obtain a highly water-soluble yellow formazan product (Formazan), and the count of viable cells is positively associated with the amount of obtained formazan product. Thus, CCK8 assay can be directly used for the evaluation of cell proliferation and toxicity analysis.
Each well of 96-well plate was loaded at an amount of 7×10^3 cells/well. After 24 h plating, 200 μl of solution was supplied to each well. NIC-1, vp-16 and blank were applied to the plate in four concentrations: concentration 1=1.528 μm, concentration 2=1.528 μm*2, concentration 3=1.528 μm*5, concentration 4=1.528 μm*10, wand each group was made in triplicate.
The plate was harvested 48 h after dosing, by:
discarding 200 μl solution in each well, adding 100 μl solution (90 μl medium+10 μl CCK8 stock solution) to each well, placing the plate in a 37° C. incubator for about 1 hour, and measuring a value of OD at 450 nm using a microplate reader.
The small cell lung cancer cell line H446 was treated with NIC-1 and etoposide (vp16) for […] respectively, and then the cell viability was detected by CCK-8 assay.
The synthesized compound NIC-1 of the present invention in the concentrations of 1.528 μM, 3.056 μM, 7.64 μM and 15.28 μM was compared with etoposide (vp16) and blank control, respectively. As shown in FIGS. 5-8, a chart of comparison of the inhibitory effect on the cell viability of small cell lung cancer cell line H446 was shown in each figure, wherein the horizontal axis represented the blank control, NIC-1, vp-16 and corresponding dosage concentrations, and the vertical axis represented measured OD values.

Jurkat cell line = assay: Cell viability CCK-8 assay, Jurkat cell suspension; type: cell-based; conditions: six concentrations 0.041 μM-10 μM; 24 h, 48 h and 72 h; OD at 450 nm
Method: Test cell line: Jurkat cell line (purchased from Nanjing Cobioer Co., Ltd.)
Experimental method: Cell viability CCK-8 assay
Experimental design: within a dose concentration range of 0.041 μM-10 μM, six concentrations were designed with three-fold increments, including 0.041 μM, 0.123 μM, 0.367 μM, 1.1 μM, 3.3 μM and 10 μM.
1. A Jurkat cell suspension was prepared and inoculated to the 96-well plate at an amount of 5×10^4/well.
2. The Jurkat cell suspension was directly added to different concentrations of NIC-1 and control drug N-(2-chloro-4-nitrophenyl)-5-chloro-2-hydroxybenzamide, followed by culture in an incubator at 37° C. for 24 h, 48 h and 72 h respectively; CCK8 was measured by adding CCK8 to each well at an amount of 10 μl/well, culturing for 2-3 h and detecting a value of OD at 450 nm using a microplate reader.
Experimental results: the outcomes of the synthesized compound NIC-1 of the present invention and the control drug N-(2-chloro-4-nitrophenyl)-5-chloro-2-hydroxybenzamide in the six concentrations were compared with those of the blank control, respectively. […]

[3] = Solubility in solvents (experimental results); type: physicochemical
Text: The molecular weight is 367.9967.

[4] = test system: small cell lung cancer cell line H446; assay: H446 cell colony in vitro formation assay (crystal violet staining); type: cell-based; conditions: Day 7 (one week)
Method: Test cell line: small cell lung cancer cell line H446 (purchased from Shanghai Beinuo Life Science Co., Ltd.) Experimental method: H446 cell colony in vitro formation assay
Detection method: crystal violet staining
On Day 1, a 6-well plate (Transwell, batch No. 3428, manufactured by Corning Incorporated) was adopted as cell plate, with 2000 cells/well per plate.
On Day 2, after microscopic observation of cell adherence, a 1 ml medium containing the drug was loaded to each well, with settings of 2 wells in one group and totally three groups: A. 6 μmol/L, a. 6 μmol/L (multiple wells); B. blank (no drug); b. blank (no drug, multiple wells); C. 12 μmol/L; c. 12 μmol/L (multiple wells); the drugs were changed every three days, and the observation was performed every day.
On Day 7, cell colonies were visually observed at the bottom of the vessel, and the cells were collected by: discarding the culture medium in each well, washing cells with phosphate buffered saline (PBS) twice for 5 minutes each time, adding 500 μl crystal violet stain solution to each well for staining at room temperature for 15 minutes, washing cells with PBS twice for 5 minutes each time, and finally detecting on a WB analyzer.

[5] = oral, Day 1, 8 and 15 of 28 days

For `CC[C@@]1(O)C(=O)OCc2c1cc1n(c2=O)Cc2cc3c(CN(C)C)c(O)ccc3nc2-1` [topotecan], the “dose at which dose-limiting toxicity (DLT) appeared” value [1, 5] is listed as 4.5 mg/m^2, the “maximum tolerated dose (MTD)” value [1, 5] is listed as 4 mg/m^2 and the II degree thrombocytopenia ([1]; weekly oral) is listed as 16.7%. For the same molecule, the II-III degree anemia ([1]; weekly oral) was 33.3%, the II-III degree fever ([1]; weekly oral) was 44.4% and the II-III degree neutropenia ([1]; weekly oral) was 27.8%. The “median progression-free survival (PFS)” value ([1]; weekly oral) was 2.3 months and the “median survival (OS)” value ([1]; weekly oral) was 5.1 months.
In the case of `O=C(Nc1ccc([N+](=O)[O-])cc1Cl)c1cc(Cl)ccc1O` [N-(2-chloro-4-nitrophenyl)-5-chloro-2-hydroxybenzamide], the side effects (human body) is given as “occasional side effects manifested by fatigue, dizziness, chest tightness, gastrointestinal disorders, fever and itching”.
For `CC(=O)Oc1ccc(Cl)cc1C(=O)Nc1ccc([N+](=O)[O-])cc1Cl` [NIC-1, N-(2-chloro-4-nitrophenyl)-5-chloro-2-acetoxybenzamide], the “inhibitory effect on cell viability of H446 compared with etoposide (vp16)” value ([2]; 1.528 μM) was “slightly better than etoposide (vp16)”, the “inhibitory effect on cell viability of H446 compared with etoposide (vp16)” value ([2]; 3.06 μM) was “significantly better than etoposide (vp16)” and the “inhibitory effect on cell viability of H446 compared with etoposide (vp16)” value ([2]; 7.64 μM) was “significantly better than etoposide (vp16)”. For the same molecule, the “inhibitory effect on cell viability of H446 compared with etoposide (vp16)” value ([2]; 15.28 μM) was “significantly better than etoposide (vp16)”, the “inhibitory effect on cell viability of Jurkat cell line compared with control drug” value (Jurkat cell line) was “superior to the control drug” and the solubility in dichloromethane ([3]; dichloromethane) was “soluble”. For the same molecule, the solubility in ethanol ([3]; ethanol) was “slightly soluble”, the solubility in ether ([3]; ether) was “slightly soluble” and the solubility in water ([3]; water) was “insoluble”. The “inhibition of growth of H446 cells (colony formation)” value ([4]; 6 μmol/L) was “partially inhibited” and the “inhibition of growth of H446 cells (colony formation)” value ([4]; 12 μmol/L) was “completely inhibited”.
